Where “and” joins values, the source holds several entries; their conditions need not be identical. Equal values may be shown once. Read-outs that look alike come from different tables or passages of the source. Square brackets hold non-standard residues; d marks the D form. Peptide text beside a SMILES is read from it. Phe(4-NH2) = Nc1ccc(C[C@H](N)C(=O)O)cc1; d2Nal = N[C@H](Cc1ccc2ccccc2c1)C(=O)O; Orn = NCCC[C@H](N)C(=O)O; Dab = NCC[C@H](N)C(=O)O
Assays:
mouse RAW 264.7 cells = tested on: mouse RAW 264.7 cells
Protocol: (§1) An in vitro LPS neutralization screening assay for evaluation of Domain III derived peptides was developed (as described in co-owned and co-pending U.S. patent application Ser. No. 08/306,473) which provides both a measure of efficacy of each peptide (EC50) and of the toxicity/growth inhibition of each peptide (IC50).
(§2) The cells were counted and their concentration adjusted to 2×10^5 cells/mL and 100 μL aliquots were added to each well of a 96-well microtitre plate. […] This incubation was performed in the absence or presence of peptides in varying concentrations between 25 ng/mL and 50 μg/mL. […] Cell proliferation was quantitatively measured by the addition of 1 μCi/well [^3H]-thymidine 5 hours after the time of initiation of the assay. After the 15-hour incubation, labeled cells were harvested onto glass fiber filters with a cell harvester (Inotech Biosystems, INB-384, Sample Processing and Filter Counting System, Lansing, Mich.).

[1] = tested on: mouse RAW 264.7 cells incubated with E. coli O113 LPS; conditions: RAW 264.7 cells with E. coli O113 LPS; concentration reversing LPS growth inhibition by 50%
Protocol: as §1, §2

[2] = tested on: C. albicans (CA-1, Strain SLU-1); assay: Radial diffusion assay; type: cell-based, Candida albicans; conditions: pmoles of peptide added to well to achieve a 30 mm^2 zone, PROBIT analysis; crude or purified (P′) peptide
In short: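 Yeast at 1×10^6 CFU/mL in agarose underlayer (3% Sabouraud, 10 mM sodium phosphate pH 7.4); 2-fold peptide dilutions in D-PBS from ~1 mg/mL loaded into wells, 3 h at 37° C, then nutrient overlayer overnight. Value: pmol/well giving 30 mm^2 net clear zone, by PROBIT regression.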

[3] = RAW 264.7 cell growth inhibited by 50%

Compound	IC50 (toxicity/growth inhibition of peptide) (mouse RAW 264.7 cells; [3])	In Vitro LPS Neutralization EC50 [1]	IC50 (toxicity/growth inhibition of peptide) (mouse RAW 264.7 cells) [µg/mL]	C. albicans pmol/30 mm^2 zone [2]
CC[C@H](C)[C@H](NC(=O)[C@H](CC(C)C)NC(=O)[C@H](Cc1c[nH]c2ccccc12)NC(=O)[C@H](CCCN)NC(=O)[C@@H](N)CCCN)C(=O)N[C@@H](CCC(N)=O)C(=O)N[C@@H](CC(C)C)C(=O)N[C@@H](CCCN)C(=O)N[C@@H](CCCN)C(N)=O [XMP 338]	NA (NA for IC50 means no evidence of decreased RAW cell growth at up to 50 μg/ml)	>25 µg/mL		
CC[C@H](C)[C@H](NC(=O)[C@H](CC(C)C)NC(=O)[C@H](Cc1c[nH]c2ccccc12)NC(=O)[C@H](CCN)NC(=O)[C@@H](N)CCN)C(=O)N[C@@H](CCC(N)=O)C(=O)N[C@@H](CC(C)C)C(=O)N[C@@H](CCN)C(=O)N[C@@H](CCN)C(N)=O [XMP 339P] (H-[Dab][Dab]WLIQL[Dab][Dab]-NH2)	NA (NA for IC50 means no evidence of decreased RAW cell growth at up to 50 μg/ml)	NA (NA for EC50 means no evidence neutralization of LPS at up to 50 μg/ml)		
CC[C@H](C)[C@H](NC(=O)[C@H](CC(C)C)NC(=O)[C@@H](N)Cc1c[nH]c2ccccc12)C(=O)N[C@@H](CCC(N)=O)C(=O)N[C@@H](CC(C)C)C(=O)N[C@@H](Cc1ccccc1)C(=O)N[C@@H](Cc1c[nH]cn1)C(=O)N[C@@H](CCCCN)C(N)=O [XMP.303P]	NA (NA for IC50 means no evidence of decreased RAW cell growth at up to 50 μg/ml)	11.79 ± 0.85 µg/mL		
CC[C@H](C)[C@H](NC(=O)[C@H](CC(C)C)NC(=O)[C@H](Cc1c[nH]c2ccccc12)NC(=O)[C@H](CCCCN)NC(=O)[C@H]1CCCN1)C(=O)N[C@@H](CCC(N)=O)C(=O)N[C@@H](CC(C)C)C(=O)N[C@@H](CCCCN)C(=O)N[C@@H](CCCCN)C(N)=O [XMP.334P]	NA (NA for IC50 means no evidence of decreased RAW cell growth at up to 50 μg/ml)	NA (NA for EC50 means no evidence neutralization of LPS at up to 50 μg/ml)		
CC[C@H](C)[C@H](NC(=O)[C@H](CC(C)C)NC(=O)[C@H](Cc1c[nH]c2ccccc12)NC(=O)[C@H](CCCCN)NC(=O)[C@@H]1CCCN1)C(=O)N[C@@H](CCC(N)=O)C(=O)N[C@@H](CC(C)C)C(=O)N[C@@H](CCCCN)C(=O)N[C@@H](CCCCN)C(N)=O [XMP.335P]	NA (NA for IC50 means no evidence of decreased RAW cell growth at up to 50 μg/ml)	NA (NA for EC50 means no evidence neutralization of LPS at up to 50 μg/ml)		
CC[C@H](C)[C@H](NC(=O)[C@H](CC(C)C)NC(=O)[C@H](Cc1c[nH]c2ccccc12)NC(=O)[C@H](Cc1ccc(N)cc1)NC(=O)[C@@H](N)Cc1ccc(N)cc1)C(=O)N[C@@H](CCC(N)=O)C(=O)N[C@@H](CC(C)C)C(=O)N[C@@H](Cc1ccc(N)cc1)C(=O)N[C@@H](Cc1ccc(N)cc1)C(N)=O [XMP.340P] (H-[Phe(4-NH2)][Phe(4-NH2)]WLIQL[Phe(4-NH2)][Phe(4-NH2)]-NH2)	NA (NA for IC50 means no evidence of decreased RAW cell growth at up to 50 μg/ml)	>50 µg/mL		
CC[C@H](C)[C@H](NC(=O)[C@H](CC(C)C)NC(=O)[C@@H](Cc1ccc2ccccc2c1)NC(=O)[C@H](CCCCN)NC(=O)[C@@H](N)CCCCN)C(=O)N[C@@H](CC(C)C)C(=O)N[C@@H](CC(C)C)C(=O)N[C@@H](CCCCN)C(=O)N[C@@H](CCCCN)C(N)=O [XMP.347P] (H-KK[d2Nal]LILLKK-NH2)		1.65 ± 0.09 µg/mL	>25	
CC[C@H](C)[C@H](NC(=O)[C@H](CC(C)C)NC(=O)[C@H](Cc1c[nH]c2ccccc12)NC(=O)[C@H](N)CS)C(=O)N[C@@H](CCC(N)=O)C(=O)N[C@@H](CC(C)C)C(=O)N[C@@H](Cc1ccccc1)C(=O)N[C@@H](Cc1c[nH]cn1)C(=O)N[C@@H](CCCCN)C(=O)N[C@@H](CCCCN)C(N)=O [XMP.359P] (H-[dC]WLIQLFHKK-NH2; N-terminus assumed)		7.31 ± 1.26 µg/mL	>25	
CC[C@H](C)[C@H](NC(=O)[C@H](CC(C)C)NC(=O)[C@@H](Cc1c[nH]c2ccccc12)NC(=O)[C@H](N)CCCCN)C(=O)N[C@@H](CCC(N)=O)C(=O)N[C@@H](CC(C)C)C(=O)N[C@@H](Cc1ccccc1)C(=O)N[C@@H](Cc1c[nH]cn1)C(=O)N[C@H](CCCCN)C(=O)N[C@H](CCCCN)C(N)=O [XMP.363P]	NA (NA for IC50 means no evidence of decreased RAW cell growth at up to 50 μg/ml)	>50 µg/mL		
CC[C@H](C)[C@H](NC(=O)[C@H](CC(C)C)NC(=O)[C@@H](Cc1c[nH]c2ccccc12)NC(=O)[C@@H](CCCCN)NC(C)=O)C(=O)N[C@@H](CCC(N)=O)C(=O)N[C@@H](CC(C)C)C(=O)N[C@@H](Cc1ccccc1)C(=O)N[C@@H](Cc1c[nH]cn1)C(=O)N[C@H](CCCCN)C(=O)N[C@H](CCCCN)C(N)=O [XMP.364P]	NA (NA for IC50 means no evidence of decreased RAW cell growth at up to 50 μg/ml)	>25 µg/mL		
CC[C@@H](C)[C@@H](NC(=O)[C@@H](CCC(N)=O)NC(=O)[C@@H](CC(C)C)NC(=O)[C@@H](Cc1ccccc1)NC(=O)[C@@H](Cc1c[nH]cn1)NC(=O)[C@@H](CCCCN)NC(=O)[C@@H](CCCCN)NC(C)=O)C(=O)N[C@H](CC(C)C)C(=O)N[C@H](Cc1c[nH]c2ccccc12)C(=O)N[C@H](CCCCN)C(N)=O [XMP.368P]		1.95 ± 0.11 µg/mL	>25	
CC[C@H](C)[C@H](NC(=O)[C@H](CC(C)C)NC(=O)[C@H](Cc1c[nH]c2ccccc12)NC(=O)[C@@H](N)CCCCN)C(=O)N[C@@H](CCCN)C(=O)N[C@@H](CC(C)C)C(=O)N[C@@H](Cc1ccccc1)C(=O)N[C@@H](Cc1c[nH]cn1)C(=O)N[C@@H](CCCCN)C(=O)N[C@@H](CCCCN)C(N)=O [XMP.369P] (H-KWLI[Orn]LFHKK-NH2)	NA (NA for IC50 means no evidence of decreased RAW cell growth at up to 50 μg/ml)	12.09 ± 0.43 µg/mL		
CC[C@H](C)[C@H](NC(=O)[C@H](CC(C)C)NC(=O)[C@H](Cc1c[nH]c2ccccc12)NC(=O)[C@H](CCCCN)NC(C)=O)C(=O)N[C@@H](CCCN)C(=O)N[C@@H](CC(C)C)C(=O)N[C@@H](Cc1ccccc1)C(=O)N[C@@H](Cc1c[nH]cn1)C(=O)N[C@@H](CCCCN)C(=O)N[C@@H](CCCCN)C(N)=O [XMP.370P] (Ac-KWLI[Orn]LFHKK-NH2)		NA (NA for EC50 means no evidence neutralization of LPS at up to 50 μg/ml)	>25	
CC[C@H](C)[C@H](NC(=O)[C@H](CC(C)C)NC(=O)[C@H](Cc1c[nH]c2ccccc12)NC(=O)[C@@H](N)CCCCN)C(=O)N[C@@H](CCN)C(=O)N[C@@H](CC(C)C)C(=O)N[C@@H](Cc1ccccc1)C(=O)N[C@@H](Cc1c[nH]cn1)C(=O)N[C@@H](CCCCN)C(=O)N[C@@H](CCCCN)C(N)=O [XMP.371P] (H-KWLI[Dab]LFHKK-NH2)		NA (NA for EC50 means no evidence neutralization of LPS at up to 50 μg/ml)	>25	
CC[C@H](C)[C@H](NC(=O)[C@H](CC(C)C)NC(=O)[C@H](Cc1c[nH]c2ccccc12)NC(=O)[C@H](CCCCN)NC(C)=O)C(=O)N[C@@H](CCN)C(=O)N[C@@H](CC(C)C)C(=O)N[C@@H](Cc1ccccc1)C(=O)N[C@@H](Cc1c[nH]cn1)C(=O)N[C@@H](CCCCN)C(=O)N[C@@H](CCCCN)C(N)=O [XMP.372P] (Ac-KWLI[Dab]LFHKK-NH2)		>25 µg/mL	>25	
H-SKVKWLIQLFHKK-NH2 [XMP.284P]		4.72 ± 0.08/ μg/ml and 3.57 ± 0.09 μg/ml		
XMP.382: K - K - L - L - Q - L - L - K - K (SEQ ID NO:213) (KKLLQLLKK)				1,437 pmol/30 mm^2 zone
XMP.383: K - K - L - L - L - Q - L - K - K (SEQ ID NO:214) (KKLLLQLKK)				473 pmol/30 mm^2 zone
XMP.384: K - K - L - L - L - L - Q - K - K (SEQ ID NO:215) (KKLLLLQKK)				2,804 pmol/30 mm^2 zone
XMP.390: 151-161, K @ 151 (V), P @ 152 (G) (SEQ ID NO:221) (KPWLIQLFHKK)				674 pmol/30 mm^2 zone
XMP.392: 150-161, P @ 152 (G) (SEQ ID NO:223) (KVPWLIQLFHKK)				569 pmol/30 mm^2 zone
XMP.408: L - K - K - K - W - A - I - Q (cyclized head to tail) (SEQ ID NO:239) (LKKKWAIQ; head-to-tail cyclized)				b (No detectable activity up to 5 μg/well)
XMP.409: S - K - 153-157 - K - K, A @ 154 (L) (SEQ ID NO:240) (SKWAIQLKK)				795 pmol/30 mm^2 zone
